In patent publication US20030229053A1, “Compounds and methods for the treatment or prevention of flavivirus infections” (Shire BioChem Inc., priority 2001, published 2003):

Target: recombinant HCV NS5B (Hepatitis C virus genotype 1b, UniProt P26663)
Test: biochemical
Conditions: flashplate, polyrA/biotinylated-oligo dT, 100 nM NS5B, 2 hrs at room temperature; read-out: RNA pol Assay 2 IC50 (μm)
Method: In vitro HCV RdRp Flashplate Scintillation Proximity Assay (Strep-Flash Assay) Used to Evaluate Analogues:
In brief, a 400 ng/μl polyrA solution (Amersham Pharmacia Biotech) was mixed volume-to-volume with 5′ biotin-oligo dT12 at 20 pmol/μl. The template and primers were denatured at 95 C for 5 minutes then incubated at 37 C for 10 minutes. Annealed template-primers were subsequently diluted in a Tris-HCl containing buffer and allowed to bind to streptavidin-coated flashplates overnight.

Sequence of recombinant HCV NS5B (P26663 2420-3010 limits assumed): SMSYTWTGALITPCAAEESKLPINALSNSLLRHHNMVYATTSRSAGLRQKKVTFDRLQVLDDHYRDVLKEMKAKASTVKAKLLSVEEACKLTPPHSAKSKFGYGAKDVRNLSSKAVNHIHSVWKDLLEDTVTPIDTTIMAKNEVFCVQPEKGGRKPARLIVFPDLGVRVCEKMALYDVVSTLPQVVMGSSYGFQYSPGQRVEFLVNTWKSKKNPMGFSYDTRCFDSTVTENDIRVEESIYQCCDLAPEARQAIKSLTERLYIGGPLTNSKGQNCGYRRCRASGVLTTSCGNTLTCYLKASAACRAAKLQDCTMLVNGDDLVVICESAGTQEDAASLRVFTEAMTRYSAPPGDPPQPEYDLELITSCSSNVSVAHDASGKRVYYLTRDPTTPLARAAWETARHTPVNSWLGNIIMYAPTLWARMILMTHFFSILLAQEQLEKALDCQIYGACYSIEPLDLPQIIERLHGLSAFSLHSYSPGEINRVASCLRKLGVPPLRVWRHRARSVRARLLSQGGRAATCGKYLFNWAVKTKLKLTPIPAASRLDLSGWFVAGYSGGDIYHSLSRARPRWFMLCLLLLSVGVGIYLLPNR

Q: Which IC50 does the source give for `N#Cc1cccc(CN(C(=O)c2ccc(Cl)cc2Cl)[C@@H](Cc2ccccc2)C(=O)O)c1` [compound #54, (2S)-2-[(3-Cyano-benzyl)-(2,4-dichloro-benzoyl)-amino]-3-phenyl-propionic acid] here?
A: Its IC50 is < 5 µM.

Q: `O=C(O)[C@H](Cc1ccccc1)N(Cc1cnc(-c2cccc([N+](=O)[O-])c2)s1)C(=O)c1ccc(Cl)cc1Cl` [compound #64, 2-{(2,4-Dichloro-benzoyl)-[2-(3-nitro-phenyl)-thiazol-5-ylmethyl]-amino}-3-phenyl-propionic acid] was tested. Which IC50 did it give?
A: Its IC50 is < 5 µM.

Q: Which IC50 does the source give for `O=C(O)[C@H](Cc1ccccc1)N(Cc1cnc(-c2cc3ccccc3o2)s1)C(=O)c1ccc(Cl)cc1Cl` [compound #86, 2-[(2-Benzofuran-2-yl-thiazol-5-ylmethyl)-(2,4-dichloro-benzoyl)-amino]-3-phenyl-propionic acid] here?
A: The IC50 was < 5 µM.

Q: For `O=C(O)[C@H](Cc1ccccc1)N(Cc1cnc(Cl)s1)C(=O)c1ccc(Cl)cc1Cl` [compound #140, (2s)-2-[(2-Chloro-thiazol-5-ylmethyl)-(2,4-dichloro-benzoyl)-amino]-3-phenyl-propionic acid], which IC50 is on record?
A: The IC50 was < 5 µM.

Q: For `O=C(O)[C@H](Cc1ccccc1)N(Cc1ccc(-c2ccc(F)cc2)s1)C(=O)c1ccc(Cl)cc1Cl` [compound #141, (2s)-2-{(2,4-Dichloro-benzoyl)-[5-(4-fluoro-phenyl)-thiophen-2-ylmethyl]-amino}-3-phenyl-propionic acid], which IC50 is on record?
A: The IC50 was < 5 µM.

Q: Which IC50 does the source give for `O=C(O)[C@H](Cc1ccccc1)N(Cc1sccc1-c1ccc(F)c(Cl)c1)C(=O)c1ccc(Cl)cc1Cl` [compound #145, (2s)-2-[[3-(3-Chloro-4-fluoro-phenyl)-thiophen-2-ylmethyl]-(2,4-dichloro-benzoyl)-amino]-3-phenyl-propionic acid] here?
A: The IC50 was 5 to 20 µM.

Q: For `O=C(O)[C@H](Cc1ccccc1)N(Cc1sccc1Br)C(=O)c1ccc(Cl)cc1Cl` [compound #146, (2s)-2-[(3-Bromo-thiophen-2-ylmethyl)-(2,4-dichloro-benzoyl)-amino]-3-phenyl-propionic acid], which IC50 is on record?
A: The IC50 was < 5 µM.

Q: `CC(C)(C(=O)O)N(Cc1ccc(-c2cccc(C(F)(F)F)c2)o1)C(=O)c1ccc(Cl)cc1Cl` [compound #147, (2s)-2-{(2,4-Dichloro-benzoyl)-[5-(3-trifluoromethyl-phenyl)-furan-2-ylmethyl]-amino}-2-methyl-propionic acid] was tested. Which IC50 did it give?
A: Its IC50 is 5 to 20 µM.

Q: `O=C(O)[C@H](Cc1ccccc1)N(Cc1cnc(-c2cccc(C(F)(F)F)c2)s1)C(=O)c1ccc(Cl)cc1Cl` [compound #148, (2s)-2-{(2,4-Dichloro-benzoyl)-[2-(3-trifluoromethyl-phenyl)-thiazol-5-ylmethyl]-amino}-3-phenyl-propionic acid] was tested. Which IC50 did it give?
A: Its IC50 is < 5 µM.

Q: How did the IC50 turn out when `O=C(O)[C@H](Cc1ccccc1)N(Cc1csc([N+](=O)[O-])c1)C(=O)c1ccc(Cl)cc1Cl` [compound #149, (2s)-2-[(2,4-Dichloro-benzoyl)-(5-nitro-thiophen-3-ylmethyl)-amino]-3-phenyl-propionic acid] was run?
A: The IC50 was < 5 µM.

Q: `CS(=O)(=O)c1ccc(CN(C(=O)c2ccc(Cl)cc2Cl)[C@@H](Cc2ccccc2)C(=O)O)cc1` [compound #150, (2s)-2-[(2,4-Dichloro-benzoyl)-(4-methanesulfonyl-benzyl)-amino]-3-phenyl-propionic acid] was tested. Which IC50 did it give?
A: Its IC50 is < 5 µM.

Q: Which IC50 does the source give for `COc1cccc(CN(C(=O)c2ccc(Cl)cc2Cl)[C@@H](Cc2ccccc2)C(=O)O)c1` [compound #151, (2s)-2-[(2,4-Dichloro-benzoyl)-(3-methoxy-benzyl)-amino]-3-phenyl-propionic acid] here?
A: The IC50 was < 5 µM.

Q: For `Cc1cccc(CN(C(=O)c2ccc(Cl)cc2Cl)[C@@H](Cc2ccccc2)C(=O)O)c1` [compound #152, (2s)-2-[(2,4-Dichloro-benzoyl)-(3-methyl-benzyl)-amino]-3-phenyl-propionic acid], which IC50 is on record?
A: Its IC50 is < 5 µM.

Q: With `Cn1nc(C(F)(F)F)c(CN(C(=O)c2ccc(Cl)cc2Cl)[C@@H](Cc2ccccc2)C(=O)O)c1Oc1cccc(Cl)c1` [compound #153, (2s)-2-[[5-(3-Chloro-phenoxy)-1-methyl-3-trifluoromethyl-1h-pyrazol-4-ylmethyl]-(2,4-dichloro-benzoyl)-amino]-3-phenyl-propionic acid] as the compound, how does the IC50 read?
A: Its IC50 is 5 to 20 µM.
